6 compounds from patent US20070232577A1, “Synthetic pentacyclic triterpenoids and derivatives of betulinic acid and betulin” (Advanced Life Sciences, Inc., priority 2006, published 2007) can be followed below.

Values after ≈ are worked out from the molar mass of the structure shown.

Assay [1] deals with MCF-7 (breast carcinoma). Description: MTS cell viability assay, MCF-7. Type of assay: cell-based. To be noted: Homo sapiens, MCF7, 72 h. On the procedure:
(§1) All treatments were performed in triplicate. […] Cells were incubated at 37° C. for 72 h.
On the technique in general: Tetrazolium assays rely on reduction of a dye to a coloured formazan, in cell work by metabolically active cells.

For assay [2], the system named is HT-29 (colon carcinoma). The assay can be described thus: MTS cell viability assay, HT-29. To be noted: Homo sapiens, 72 h. Type of assay: cell-based. How it is done: as §1
Assay [3] deals with OVCAR-3 (ovarian carcinoma). Description: MTS cell viability assay, OVCAR-3. Type of assay: cell-based. To be noted: Homo sapiens, 72 h. On the procedure: as §1
For assay [4], the system named is SK-MEL-2 (melanoma). Description: MTS cell viability assay, SK-MEL-2. Particulars: Homo sapiens, SK-MEL-2, 72 h, read-out: IC50 SK-MEL-2.
Experimental: Cells were plated, the evening before treatment, for each treatment on 96-well plates (1×10^4 cells/well) in 100 μL volume per well. Drug solutions were prepared by diluting each test compound in DSMO (10 mM) with the appropriate cell growth media for each individual cell line, or in “Universal Media” if several cell lines were to be assayed in parallel, immediately prior to cell treatment. Universal Media consisted of 5 mL sodium pyruvate (100×liquid stock, CellGro), 5 mL glucose (100×, 45% liquid stock, CellGro), 5 mL Penicillin/Streptomycin (100×liquid stock, CellGro), 10 mL sodium bicarbonate (50×liquid stock, CellGro), 25 mL Fetal Calf Serum, 1.25 mL insulin (4 mg/mL, Gibco) and 449 mL RPMI media with 2 mM glutamine for a total volume of 500 mL. Cells were treated by aspirating media from each well and adding 80 μL of each drug solution to the attached cells. All treatments were performed in triplicate. Growth media (80 μL) were added to 3 blank wells (no cells) to measure background from the growth media Growth media alone (no DMSO or test compond) was added to 2 wells containing cells to measure the baseline MTS activity and vehicle (DMSO) control solutions were also included to monitor basal toxicity from DMSO. Cells were incubated at 37° C. for 72 h. MTS reagent (per 96-well plate) were prepared by combining 2 mL of MTS working solution (Cell Titer AQueous Non-Radioactive Cell Proliferation Assay, Promega, cat#G1112), 100 μL of 0.92 mg/mL phenazine methosulfate/Dulbecco's PBS and 2.1 mL growth media. MTS reagent (40 μL) were added to each well and incubated at 37° C. for 1.5 to 4 h. Plates were gently shaken by hand until solution in each well appeared homogenous. Absorbances at 490 nm were measured on a plate reader at multiple time points following the addition of MTS reagent for each plate. Triplicate absorbance (490 nm) measurements were averaged following background (no cell) subtraction for each drug concentration. Percent Cell Viability was calculated for each drug concentration using the following equation: {[Absorbances(drug treated)]/[Absorbances(DMSO treated)]}×100%
Percent viability (y-axis) was plotted against drug concentration (x-axis) and the resulting graph was used to determine the 50% inhibitory concentration (IC50) for each drug.
The subject of assay [5] is A-375 (melanoma). Description: MTS cell viability assay, A-375. Type of assay: cell-based. Particulars: Homo sapiens, 72 h. On the procedure: as §1
For assay [6], the system named is Daoy (glioblastoma). The assay can be described thus: MTS cell viability assay, Daoy. To be noted: Homo sapiens, Daoy, 72 h, read-out: IC50 Daoy.
Assay [7] relates to LN-229 (glioblastoma). Description: MTS cell viability assay, LN-229. To be noted: Homo sapiens, 72 h. The class given is cell-based. How it is done: as §1

As usually defined, the IC50 is the concentration that inhibits the measured activity by half. Regarding `C=C(C)[C@@H]1CC[C@]2(CNCCCl)CC[C@]3(C)[C@H](CC[C@@H]4[C@@]5(C)CC[C@H](O)C(C)(C)[C@@H]5CC[C@]43C)[C@@H]12` [Compound 70, (1R,3aS,5aR,5bR,7aR,9S,11aR,11bR,13aR,13bR)-3a-((2-chloroethylamino)methyl)-5a,5b,8,8,11a-pentamethyl-1-(prop-1-en-2-yl)icosahydro-1H-cyclopenta[a]chrysen-9-ol], the IC50 in assay [1] is 54 µg/mL (≈ 107 µM); in assay [2] it was 19 µg/mL (≈ 37.7 µM); in assay [3], 10 µg/mL (≈ 19.8 µM); in assay [4], 35 µg/mL (≈ 69.4 µM); in assay [5], 20 µg/mL (≈ 39.7 µM); in assay [6], under 2 µg/mL.
For `CC(C)[C@@H]1CC[C@]2(C(=O)O)CC[C@]3(C)[C@H](CC[C@@H]4[C@@]5(C)CCC(=O)C(C)(C)[C@@H]5CC[C@]43C)[C@@H]12` [Compound 87, (1S,3aS,5aR,5bR,7aR,11aR,11bR,13aR,13bR)-1-isopropyl-5a,5b,8,8,11a-pentamethyl-9-oxoicosahydro-1H-cyclopenta[a]chrysene-3a-carboxylic acid], the IC50 was 38 µg/mL (≈ 83.2 µM) in assay [1]; 35 µg/mL (≈ 76.6 µM) in assay [2]; 22 µg/mL (≈ 48.2 µM) in assay [3]; 16 µg/mL (≈ 35 µM) in assay [4]; 22 µg/mL (≈ 48.2 µM) in assay [5]; 5 µg/mL (≈ 10.9 µM) in assay [6]. The compound further returned an IC50 in assay [7] of 28 µg/mL (≈ 61.3 µM).
On to `C=C(C)[C@@H]1CC[C@]2(C(=O)O)CC[C@]3(C)[C@H](CC[C@@H]4[C@@]5(C)CC[C@H](O)C(C)(C)[C@@H]5CC[C@]43C)[C@@H]12` [Compound 1, (1R,3aS,5aR,5bR,7aR,9S,11aR, 11bR,13aR,13bR)-9-hydroxy-5a,5b,8,8,11a-pentamethyl-1-(prop-1-en-2-yl)icosahydro-1H-cyclopenta[a]chrysene-3a-carboxylic acid, reference compound], for which the IC50 in assay [1] stood at 50 µg/mL (≈ 109 µM); in assay [2] it was 37 µg/mL (≈ 81 µM); in assay [3], 59 ± 4.58 µg/mL (≈ 129 µM); in assay [4], 33.2 ± 3.77 µg/mL (≈ 72.7 µM); in assay [5] it was 51 µg/mL (≈ 112 µM); in assay [6], 31.3 ± 2.28 µg/mL (≈ 68.5 µM). The IC50 in assay [7] worked out at 61 µg/mL (≈ 134 µM).
In the case of `C=C(C)[C@@H]1CC[C@]2(C(=O)O)CC[C@]3(C)[C@H](CC[C@@H]4[C@@]5(C)CCC(NCCO)C(C)(C)[C@@H]5CC[C@]43C)[C@@H]12` (stereo partly drawn) [Compound 77, (1R,3aS,5aR,5bR,7aR,11aR,11bR,13aR,13bR)-9-(2-hydroxyethylamino)-5a,5b,8,8,11a-pentamethyl-1-(prop-1-en-2-yl)icosahydro-1H-cyclopenta[a]chrysene-3a-carboxylic acid], the IC50 is 35 µg/mL (≈ 70 µM) in assay [1]; 16 µg/mL (≈ 32 µM) in assay [2]; 28 µg/mL (≈ 56 µM) in assay [3]; 36 µg/mL (≈ 72 µM) in assay [4]; 14 µg/mL (≈ 28 µM) in assay [5]; under 2 µg/mL in assay [6].
For `C=C(C)[C@@H]1CC[C@]2(COC(=O)CBr)CC[C@]3(C)[C@H](CC[C@@H]4[C@@]5(C)CCC(=O)C(C)(C)[C@@H]5CC[C@]43C)[C@@H]12` [Compound 18, ((1R,3aS,5aR,5bR,7aR,11aR,11bR,13aR,13bR)-5a,5b,8,8,11a-pentamethyl-9-oxo-1-(prop-1-en-2-yl)icosahydro-1H-cyclopenta[a]chrysen-3a-yl)methyl 2-bromoacetate], the IC50 in assay [1] is 48 µg/mL (≈ 85.5 µM); in assay [2], 36 µg/mL (≈ 64.1 µM); in assay [3], 8 µg/mL (≈ 14.2 µM); in assay [4], 42 µg/mL (≈ 74.8 µM); in assay [5], 14 µg/mL (≈ 24.9 µM); in assay [6], under 2 µg/mL.
`CC(C)[C@@H]1CC[C@]2(CO)CC[C@]3(C)[C@H](CC[C@@H]4[C@@]5(C)C=C(C#N)C(=O)C(C)(C)[C@@H]5CC[C@]43C)[C@@H]12` [Compound 55, (1S,3aS,5aR,5bR,7aR,11aR,11bR,13aR,13bR)-3a-(hydroxymethyl)-1-isopropyl-5a,5b,8,8,11a-pentamethyl-9-oxo-2,3,3a,4,5,5a,5b,6,7,7a,8,9,11a,11b,12,13,13a,13b-octadecahydro-1H-cyclopenta[a]chrysene-10-carbonitrile]: the IC50 is over 75 µg/mL in assay [1], 7 µg/mL (≈ 15 µM) in assay [2], 8 µg/mL (≈ 17.2 µM) in assay [3] and 4 µg/mL (≈ 8.59 µM) in assay [5].
